Laboratory results published in PubChem BioAssay (NCI).
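GI50 marks 50% less growth. TGI is the concentration that stops growth completely.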

Legend:
Experiment in all cases: growth of human tumour cells (NCI), 384-well format
EKVX NSCLC = system: EKVX NSCLC
ACHN renal = system: ACHN renal
OVCAR-3 ovarian = system: OVCAR-3 ovarian
786-0 renal = system: 786-0 renal
HCT-116 colon = system: HCT-116 colon
CAKI-1 renal = system: CAKI-1 renal
COLO 205 colon = system: COLO 205 colon
NCI-H226 lung = system: NCI-H226 lung
SN12C renal = system: SN12C renal
HOP-92 NSCLC = system: HOP-92 NSCLC
SK-MEL-2 melanoma = system: SK-MEL-2 melanoma
PC-3 prostate = system: PC-3 prostate
SW-620 colon = system: SW-620 colon
LOX IMVI melanoma = system: LOX IMVI melanoma
KM12 colon = system: KM12 colon
HCT-15 colon = system: HCT-15 colon
DU-145 prostate = system: DU-145 prostate
SR leukemia = system: SR leukemia
HOP-62 NSCLC = system: HOP-62 NSCLC
UACC-257 melanoma = system: UACC-257 melanoma
HT29 colon = system: HT29 colon
U251 glioblastoma = system: U251 glioblastoma
SNB-19 CNS = system: SNB-19 CNS
IGROV1 ovarian = system: IGROV1 ovarian
SF-539 CNS = system: SF-539 CNS
SF-295 CNS = system: SF-295 CNS
HCC-2998 colon = system: HCC-2998 colon
CCRF-CEM leukemia = system: CCRF-CEM leukemia
NCI-H322M lung = system: NCI-H322M lung
K-562 leukemia = system: K-562 leukemia
NCI-H460 NSCLC = system: NCI-H460 NSCLC
UACC-62 melanoma = system: UACC-62 melanoma
MDA-MB-231 breast = system: MDA-MB-231 breast
RXF 393 renal = system: RXF 393 renal
SK-OV-3 ovarian = system: SK-OV-3 ovarian
BT-549 breast = system: BT-549 breast
HL-60(TB) leukemia = system: HL-60(TB) leukemia
RPMI-8226 leukemia = system: RPMI-8226 leukemia
M14 melanoma = system: M14 melanoma
NCI-H23 lung = system: NCI-H23 lung
A498 renal = system: A498 renal
MDA-MB-468 breast = system: MDA-MB-468 breast
OVCAR-8 ovarian = system: OVCAR-8 ovarian
MALME-3M melanoma = system: MALME-3M melanoma
SK-MEL-28 melanoma = system: SK-MEL-28 melanoma
HS 578T breast = system: HS 578T breast
MCF7 breast = system: MCF7 breast

SMILES: Cn1cc(CNCC2CCN(c3ncc(C(=O)NO)cn3)CC2)c2ccccc21
- GI50 (EKVX NSCLC): 30.4 nM
- TGI (EKVX NSCLC): 303 nM
- GI50 (ACHN renal): 14.3 nM
- TGI (ACHN renal): 34.9 nM
- GI50 (OVCAR-3 ovarian): 12.2 nM
- TGI (OVCAR-3 ovarian): 28.6 nM
- GI50 ([…]-0 renal): 22.8 nM
- TGI (786-0 renal): 120 nM
- GI50 (HCT-116 colon): < 10 nM
- TGI (HCT-116 colon): 15.7 nM
- GI50 (CAKI-1 renal): < 11.2 nM
- TGI (CAKI-1 renal): 26 nM
- GI50 (COLO 205 colon): < 10 nM
- TGI (COLO 205 colon): 18.3 nM
- GI50 (NCI-H226 lung): 31.9 nM
- TGI (NCI-H226 lung): 115 nM
- GI50 (SN12C renal): 14.1 nM
- TGI (SN12C renal): 29.7 nM
- GI50 (HOP-92 NSCLC): < 12.2 nM
- TGI (HOP-92 NSCLC): 31.7 nM
- GI50 (SK-MEL-2 melanoma): < 10 nM
- TGI (SK-MEL-2 melanoma): 10.6 nM
- GI50 (PC-3 prostate): < 12.3 nM
- TGI (PC-3 prostate): 46.2 nM
- GI50 (SW-620 colon): 12.9 nM
- TGI (SW-620 colon): 26.2 nM
- GI50 (LOX IMVI melanoma): 12.1 nM
- TGI (LOX IMVI melanoma): 24.9 nM
- GI50 (KM12 colon): 16.7 nM
- TGI (KM12 colon): 63.6 nM
- GI50 (HCT-15 colon): 49.4 nM
- TGI (HCT-15 colon): 300 nM
- GI50 (DU-145 prostate): < 10 nM
- TGI (DU-145 prostate): 22.9 nM
- GI50 (SR leukemia): < 10 nM
- TGI (SR leukemia): < 10 nM
- GI50 (HOP-62 NSCLC): < 11.8 nM
- TGI (HOP-62 NSCLC): 62.1 nM
- GI50 (UACC-257 melanoma): < 10 nM
- TGI (UACC-257 melanoma): 23.6 nM
- GI50 (HT29 colon): 10 nM
- TGI (HT29 colon): 21.6 nM
- GI50 (U251 glioblastoma): 11.3 nM
- TGI (U251 glioblastoma): 24.1 nM
- GI50 (SNB-19 CNS): 17.3 nM
- TGI (SNB-19 CNS): 45.7 nM
- GI50 (IGROV1 ovarian): 10.2 nM
- TGI (IGROV1 ovarian): 23.7 nM
- GI50 (SF-539 CNS): 13.9 nM
- TGI (SF-539 CNS): 53 nM
- GI50 (SF-295 CNS): 16.1 nM
- TGI (SF-295 CNS): 54.4 nM
- GI50 (HCC-2998 colon): < 11.1 nM
- TGI (HCC-2998 colon): 24.8 nM
- GI50 (CCRF-CEM leukemia): < 10 nM
- TGI (CCRF-CEM leukemia): < 10.8 nM
- GI50 (NCI-H322M lung): 12.3 nM
- TGI (NCI-H322M lung): 40.5 nM
- GI50 (K-562 leukemia): < 10.5 nM
- TGI (K-562 leukemia): 22.6 nM
- GI50 (NCI-H460 NSCLC): < 11.1 nM
- TGI (NCI-H460 NSCLC): 37.1 nM
- GI50 (UACC-62 melanoma): < 10 nM
- TGI (UACC-62 melanoma): 14.9 nM
- GI50 (MDA-MB-231 breast): 14.3 nM
- TGI (MDA-MB-231 breast): 37.2 nM
- GI50 (RXF 393 renal): 16.2 nM
- TGI (RXF 393 renal): 35.5 nM
- GI50 (SK-OV-3 ovarian): 15.5 nM
- TGI (SK-OV-3 ovarian): 32.9 nM
- GI50 (BT-549 breast): 21.6 nM
- TGI (BT-549 breast): 75.8 nM
- GI50 (HL-60(TB) leukemia): < 10 nM
- TGI (HL-60(TB) leukemia): < 10 nM
- GI50 (RPMI-8226 leukemia): < 10 nM
- TGI (RPMI-8226 leukemia): < 10 nM
- GI50 (M14 melanoma): < 10 nM
- TGI (M14 melanoma): 105 nM
- GI50 (NCI-H23 lung): 13.1 nM
- TGI (NCI-H23 lung): 42.1 nM
- GI50 (A498 renal): 12.8 nM
- TGI (A498 renal): 29.3 nM
- GI50 (MDA-MB-468 breast): < 10 nM
- TGI (MDA-MB-468 breast): < 10 nM
- GI50 (OVCAR-8 ovarian): < 10 nM
- TGI (OVCAR-8 ovarian): 21.3 nM
- GI50 (MALME-3M melanoma): < 10 nM
- TGI (MALME-3M melanoma): < 14.5 nM
- GI50 (SK-MEL-28 melanoma): < 11 nM
- TGI (SK-MEL-28 melanoma): 27.6 nM
- GI50 (HS 578T breast): < 10.4 nM
- TGI (HS 578T breast): 22.4 nM
- GI50 (MCF7 breast): < 10 nM
- TGI (MCF7 breast): 20.9 nM
